Laboratory results published in patent publication US4268665A, “Derivatives of antibiotic tylosin” (Toyo Jozo Kabushiki Kaisha, priority 1978, dated 1981).
In brackets after ≈: the same amount, converted by molar mass. Where two headings read alike, the source gives them in different places.

Assays:
Type in all cases: cell-based
[1] = tested on: Staph.aureus MS353; test: MIC on Staph.aureus MS353; details: Staphylococcus aureus
From the text: (§1) In Table I hereinafter is shown the minimum inhibitory concentrations (MIC) on microorganisms of the products of the present invention. As a result, the compound [1] is seen to be effective against macrolide-resistant A group microorganisms.

[2] = tested on: Strept.pyogenes N.Y.5; test: MIC on Strept.pyogenes N.Y.5; details: Streptococcus pyogenes
From the text: as §1

[3] = tested on: Staph.aureus MS353A0; test: MIC on Staph.aureus MS353A0 (macrolide-resistant A group); details: Staphylococcus aureus; Staph.aureus MS353A0, erythromycin, oleandomycin, 16-membered macrolide resistant clinical isolate
From the text: as §1
(§2) *Erythromycin, oleandomycin, 16membered macrolide resistant strains of
(§3) clinical isolates (macrolideresistant Agroup strains)

[4] = tested on: Staph.aureus ATCC6538P; test: MIC on Staph.aureus ATCC6538P; details: Staphylococcus aureus
From the text: as §1

[5] = tested on: Strept.pyogenes 1022; test: MIC on Strept.pyogenes 1022 (macrolide-resistant A group); details: Streptococcus pyogenes; Strept.pyogenes 1022, erythromycin, oleandomycin, 16-membered macrolide resistant clinical isolate
From the text: as §1, §2, §3

[6] = tested on: Staph.aureus 0119; test: MIC on Staph.aureus 0119 (macrolide-resistant A group); details: Staphylococcus aureus
From the text: as §1, §2, §3

[7] = tested on: Staph.aureus 0116; test: MIC on Staph.aureus 0116 (macrolide-resistant A group); details: Staphylococcus aureus
From the text: as §1, §2, §3

[8] = tested on: Staph.aureus 0127; test: MIC on Staph.aureus 0127 (macrolide-resistant A group); details: Staphylococcus aureus; Staph.aureus 0127, erythromycin, oleandomycin, 16-membered macrolide resistant clinical isolate
From the text: as §1, §2, §3

[9] = Staph.aureus 0116, erythromycin, oleandomycin, 16-membered macrolide resistant clinical isolate, read-out: MIC
[10] = Staph.aureus 0119, erythromycin, oleandomycin, 16-membered macrolide resistant clinical isolate, read-out: MIC

SMILES	MIC [1] [µg/mL]	MIC [2] [µg/mL]	MIC [3] [µg/mL]	MIC [4] [µg/mL]	MIC [5] [µg/mL]	MIC [6]; 0119 [µg/mL]	MIC [7, 9] [µg/mL]	MIC [8] [µg/mL]	MIC [6, 10] [µg/mL]	MIC [7]; 0116 [µg/mL]
CCCC(=O)OC1C(C)OC(OC2C(C)OC(OC3C(CC=O)CC(C)C(=O)C=CC(C)=CC(COC4OC(C)C(O)C(OC)C4OC)C(CC)OC(=O)CC(O)C3C)C(O)C2N(C)C)CC1(C)OC(=O)CC (stereo not drawn) [3"-Pro, 4"-Bu, 4"-butyryl-3"-propionyltylosin]	3.1 (≈ 2.97 µM)	0.2 (≈ 0.192 µM)	12.5 (≈ 12 µM)	1.6 (≈ 1.54 µM)	1.6 (≈ 1.54 µM)	12.5 (≈ 12 µM)	6.3 (≈ 6.04 µM)	25 (≈ 24 µM)		
CCC1OC(=O)CC(O)C(C)C(OC2OC(C)C(OC3CC(C)(OC(=O)CC(C)C)C(OC(C)=O)C(C)O3)C(N(C)C)C2O)C(CC=O)CC(C)C(=O)C=CC(C)=CC1COC1OC(C)C(O)C(OC)C1OC (stereo not drawn) [3"-Iva, 4"-Ac, 4"-acetyl-3"-isovaleryltylosin]	1.6 (≈ 1.54 µM)	0.2 (≈ 0.192 µM)	6.3 (≈ 6.04 µM)	0.8 (≈ 0.768 µM)	6.3 (≈ 6.04 µM)		6.3 (≈ 6.04 µM)	> 100	25 (≈ 24 µM)	
CC[C@H]1OC(=O)C[C@@H](O)[C@H](C)[C@@H](O[C@@H]2O[C@H](C)[C@@H](O[C@H]3C[C@@](C)(O)[C@@H](O)[C@H](C)O3)[C@H](N(C)C)[C@H]2O)[C@@H](CC=O)C[C@@H](C)C(=O)/C=C/C(C)=C/[C@@H]1CO[C@@H]1O[C@H](C)[C@@H](O)[C@@H](OC)[C@H]1OC [3"-H, 4"-H, tylosin]	1.6 (≈ 1.75 µM)	0.2 (≈ 0.218 µM)	> 100	0.8 (≈ 0.873 µM)	> 100		> 100	> 100	> 100	
CCC(=O)OC1(C)CC(OC2C(C)OC(OC3C(CC=O)CC(C)C(=O)C=CC(C)=CC(COC4OC(C)C(O)C(OC)C4OC)C(CC)OC(=O)CC(O)C3C)C(O)C2N(C)C)OC(C)C1OC(=O)CC(C)C (stereo not drawn) [3"-Pro, 4"-Iva, 4"-isovaleryl-3"-propionyltylosin]	3.1 (≈ 2.93 µM)	0.4 (≈ 0.379 µM)	6.3 (≈ 5.96 µM)	1.6 (≈ 1.51 µM)	0.8 (≈ 0.757 µM)		6.3 (≈ 5.96 µM)	12.5 (≈ 11.8 µM)	6.3 (≈ 5.96 µM)	
CCC1OC(=O)CC(O)C(C)C(OC2OC(C)C(OC3CC(C)(OC(C)=O)C(OC(C)=O)C(C)O3)C(N(C)C)C2O)C(CC=O)CC(C)C(=O)C=CC(C)=CC1COC1OC(C)C(O)C(OC)C1OC (stereo not drawn) [3"-Ac, 4"-Ac, 3", 4"-diacetyltylosin]	1.6 (≈ 1.6 µM)	0.2 (≈ 0.2 µM)	12.5 (≈ 12.5 µM)	0.8 (≈ 0.8 µM)	6.3 (≈ 6.3 µM)			100 (≈ 100 µM)	50 (≈ 50 µM)	12.5 (≈ 12.5 µM)
CCCC(=O)OC1C(C)OC(OC2C(C)OC(OC3C(CC=O)CC(C)C(=O)C=CC(C)=CC(COC4OC(C)C(O)C(OC)C4OC)C(CC)OC(=O)CC(O)C3C)C(O)C2N(C)C)CC1(C)OC(=O)CCC (stereo not drawn) [3"-Bu, 4"-Bu, 3", 4"-dibutyryltylosin]	6.1 (≈ 5.77 µM)	0.2 (≈ 0.189 µM)	12.5 (≈ 11.8 µM)	1.6 (≈ 1.51 µM)	1.6 (≈ 1.51 µM)	12.5 (≈ 11.8 µM)	6.3 (≈ 5.96 µM)	25 (≈ 23.7 µM)		
CCC1OC(=O)CC(O)C(C)C(OC2OC(C)C(OC3CC(C)(OC(C)=O)C(OC(=O)CC(C)C)C(C)O3)C(N(C)C)C2O)C(CC=O)CC(C)C(=O)C=CC(C)=CC1COC1OC(C)C(O)C(OC)C1OC (stereo not drawn) [3"-Ac, 4"-Iva, 3"-acetyl-4"-isovaleryltylosin]	3.1 (≈ 2.97 µM)	0.2 (≈ 0.192 µM)	6.3 (≈ 6.04 µM)	1.6 (≈ 1.54 µM)	1.6 (≈ 1.54 µM)		6.3 (≈ 6.04 µM)	12.5 (≈ 12 µM)	6.3 (≈ 6.04 µM)	
CCC(=O)OC1C(C)OC(OC2C(C)OC(OC3C(CC=O)CC(C)C(=O)C=CC(C)=CC(COC4OC(C)C(O)C(OC)C4OC)C(CC)OC(=O)CC(O)C3C)C(O)C2N(C)C)CC1(C)OC(=O)CC (stereo not drawn) [3"-Pro, 4"-Pro, 3", 4"-dipropionyltylosin]	3.1 (≈ 3.01 µM)	0.2 (≈ 0.195 µM)	25 (≈ 24.3 µM)	1.6 (≈ 1.56 µM)	1.6 (≈ 1.56 µM)		6.3 (≈ 6.13 µM)	25 (≈ 24.3 µM)	12.5 (≈ 12.2 µM)	
CCC(=O)OC1C(C)OC(OC2C(C)OC(OC3C(CC=O)CC(C)C(=O)C=CC(C)=CC(COC4OC(C)C(O)C(OC)C4OC)C(CC)OC(=O)CC(O)C3C)C(O)C2N(C)C)CC1(C)OC(C)=O (stereo not drawn) [3"-Ac, 4"-Pro, 3"-acetyl-4"-propionyltylosin]	3.1 (≈ 3.06 µM)	0.2 (≈ 0.197 µM)	25 (≈ 24.6 µM)	1.6 (≈ 1.58 µM)	1.6 (≈ 1.58 µM)		6.3 (≈ 6.21 µM)	25 (≈ 24.6 µM)	12.5 (≈ 12.3 µM)	
CCCC(=O)OC1C(C)OC(OC2C(C)OC(OC3C(CC=O)CC(C)C(=O)C=CC(C)=CC(COC4OC(C)C(O)C(OC)C4OC)C(CC)OC(=O)CC(O)C3C)C(O)C2N(C)C)CC1(C)O (stereo not drawn) [3"-H, 4"-Bu, reference compound]	3.1 (≈ 3.14 µM)	0.2 (≈ 0.203 µM)	50 (≈ 50.7 µM)	0.8 (≈ 0.811 µM)	12.5 (≈ 12.7 µM)		25 (≈ 25.3 µM)	100 (≈ 101 µM)	50 (≈ 50.7 µM)	
CCCCCC(=O)OC1C(C)OC(OC2C(C)OC(OC3C(CC=O)CC(C)C(=O)C=CC(C)=CC(COC4OC(C)C(O)C(OC)C4OC)C(CC)OC(=O)CC(O)C3C)C(O)C2N(C)C)CC1(C)OC(C)=O (stereo not drawn) [3"-Ac, 4"-Hex, 3"-acetyl-4"-hexanoyltylosin]	3.1 (≈ 2.93 µM)	0.4 (≈ 0.379 µM)	12.5 (≈ 11.8 µM)	1.6 (≈ 1.51 µM)	1.6 (≈ 1.51 µM)	12.5 (≈ 11.8 µM)	6.3 (≈ 5.96 µM)	25 (≈ 23.7 µM)		
CCCC(=O)OC1C(C)OC(OC2C(C)OC(OC3C(CC=O)CC(C)C(=O)C=CC(C)=CC(COC4OC(C)C(O)C(OC)C4OC)C(CC)OC(=O)CC(O)C3C)C(O)C2N(C)C)CC1(C)OC(C)=O (stereo not drawn) [3"-Ac, 4"-Bu, 3"-acetyl-4"-butyryltylosin]	3.1 (≈ 3.01 µM)	0.2 (≈ 0.195 µM)	12.5 (≈ 12.2 µM)	1.6 (≈ 1.56 µM)	1.6 (≈ 1.56 µM)	12.5 (≈ 12.2 µM)	6.3 (≈ 6.13 µM)	25 (≈ 24.3 µM)		
